In PubChem BioAssay (NCI):
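Results reflect a 48-hour exposure of cells in 96-well plates to compound at five concentrations. The concentration for 50% growth inhibition is given as GI50. At the TGI there is no net growth.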

Key:
Experiment in all cases: NCI tumour cell line growth inhibition, 48 h
A549 NSCLC = test system: A549 NSCLC
HS 578T breast = test system: HS 578T breast
RPMI-8226 leukemia = test system: RPMI-8226 leukemia
SN12C renal = test system: SN12C renal
MDA-MB-231 breast = test system: MDA-MB-231 breast
OVCAR-4 ovarian = test system: OVCAR-4 ovarian
KM12 colon = test system: KM12 colon
HCT-116 colon = test system: HCT-116 colon
BT-549 breast = test system: BT-549 breast

| SMILES | TGI (A549 NSCLC) [µM] | TGI (HS 578T breast) [µM] | TGI (RPMI-8226 leukemia) [µM] | TGI (SN12C renal) [µM] | TGI (MDA-MB-231 breast) [µM] | TGI (OVCAR-4 ovarian) [µM] | TGI (KM12 colon) [µM] | TGI (HCT-116 colon) [µM] | TGI (BT-549 breast) [µM] | GI50 (BT-549 breast) [µM] | GI50 (MDA-MB-231 breast) [µM] | GI50 (OVCAR-4 ovarian) [µM] |
| --- | --- | --- | --- | --- | --- | --- | --- | --- | --- | --- | --- | --- |
| CN(NC(=O)/C(=C/c1ccc(O)cc1)NC(=O)c1ccccc1)c1ccnc2cc(Cl)ccc12 | 38.4 | 48.2 | 40.7 | 48.6 | 40.4 | 33.6 | 35.8 | 38.2 |  |  |  |  |
| COC(c1ccsc1)C(C#N)(C#N)N=Cc1ccsc1 (centres undefined) | > 100 | 61.7 |  | 30.8 | 21.3 | 88 | 32.3 | 25.4 | 38.7 |  |  |  |
| O=S(=O)(c1cc(Cl)ccc1Cl)N1CCN(S(=O)(=O)c2cc(Cl)ccc2Cl)CC1 | > 100 | 83.4 |  | > 100 | > 100 |  | > 100 | > 100 | > 100 |  |  |  |
| CCCSc1cc(Cl)c(C)cc1S(=O)(=O)n1ccnc1OCCCN(C)C | > 100 | > 100 |  | > 100 | > 100 | > 100 | > 100 | > 100 | > 100 |  |  |  |
| O=C(CCc1cccc(O)c1)NCCc1cccc(O)c1 | > 100 | > 100 |  | > 100 | > 100 | > 100 | > 100 | > 100 | > 100 |  |  |  |
| CC(=O)Nc1ccc(S(=O)(=O)Nc2nnc(S(N)(=O)=O)s2)cc1 | > 100 |  | > 100 |  | > 100 | > 100 | > 100 | > 100 | > 100 |  |  |  |
| CC1(C)O[C@H](C(=O)O)[C@@H](C(=O)O)O1 | > 100 | > 100 | > 100 | > 100 | > 100 | > 100 | > 100 | > 100 |  |  |  |  |
| Cc1c(CNc2ccc(Cl)c(C(=O)NC(CC(=O)O)C(=O)O)c2)ccc2nc(N)nc(N)c12 (centres undefined) | > 1000 | > 1000 |  | > 1000 | > 1000 | > 1000 | > 1000 | > 1000 | > 1000 | 666 | > 1000 | 265 |
| Cc1cc(S(=O)(=O)Nc2nc3ccsc3c(=O)n2N)c(S)cc1Cl | > 100 |  | > 100 | > 100 | > 100 | > 100 | > 100 | > 100 | > 100 |  |  |  |
| CSC1=Nc2ccccc2-c2nc(-c3ccccc3)cc(-c3ccccc3)c2C1 | > 100 |  | > 100 | > 100 | 41.6 | > 100 | > 100 | 30.7 | > 100 |  |  |  |
| Nn1c(Cc2ccc(Cl)cc2)n[nH]c1=O | > 100 | > 100 | > 100 | > 100 | > 100 | > 100 | > 100 | > 100 |  |  |  |  |
| COc1c(-c2cc(C)c(Cl)c(=O)[nH]2)c(O)c(OC)c2occc12 | > 100 |  | > 100 | > 100 | > 100 | > 100 | > 100 | > 100 |  |  |  |  |
| CC(C)OC(=O)c1ccc(NCC2=CC(=O)C=CC2=O)cc1Cl | > 100 | > 100 |  | 44.3 | 47.6 | 32 | 33.2 | > 53.2 | 9.92 |  |  |  |
| COc1ccc(/C=N\N2CC(=O)N3C4C=CC(CC4)N3C2=O)cc1 (centres undefined) | > 100 | > 100 | > 100 | > 100 | > 100 |  | > 100 | > 100 | > 100 |  |  |  |
| COc1cc(C2c3cc4c(cc3C(O)C3CCC(=O)N23)OCO4)cc(OC)c1OC (centres undefined) | > 100 | > 100 | > 100 | > 100 | > 100 |  | > 100 | > 100 | 66.1 |  |  |  |
| CCOC(=O)c1c(SC(=O)c2cc(OC)c(OC)c(OC)c2)n(-c2ccccc2)c(=S)n(-c2ccccc2)c1=O | > 100 | > 100 |  | > 100 | > 100 | > 100 | > 100 | > 100 |  |  |  |  |
| Nc1ccc2c(c1)C1Oc3ccccc3CC1CO2 (centres undefined) | > 100 |  | > 100 | > 100 | > 100 |  | > 100 | > 100 | > 100 |  |  |  |
| CCNC(=S)N/N=C/c1cc(OC)ccc1O | > 100 | > 100 |  | > 100 | > 100 | > 100 | > 100 | > 100 |  |  |  |  |
| CSc1nc2ccccc2c(=O)n1/N=C1\C(=O)N(CN2CCOCC2)c2ccc(Cl)cc21 | > 100 | > 100 |  | > 100 | > 100 | > 100 | > 100 | > 100 | 93.8 |  |  |  |
